Some test systems named below: HT29 colon; K-562 leukemia; RXF 393 renal; SK-MEL-28 melanoma; MDA-MB-435; OVCAR-5 ovarian; SF-268 CNS; NCI/ADR-RES ovarian; KM12 colon; COLO 205 colon.
Assay in all cases: NCI tumour cell line growth inhibition, 48 h

SMILES strings stand for the structures.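 48-hour exposure; five concentrations; linearly interpolated endpoints. The concentration for 50% growth inhibition is given as GI50. TGI: concentration producing complete growth inhibition.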

As for `CCN(CC)c1ccc(C(=N)c2ccc(N(C)C)cc2)cc1`, the GI50 with HT29 colon is 0.0399 µM; with K-562 leukemia it was 0.127 µM; in the assay with RXF 393 renal, 1.18 µM; in the assay on SK-MEL-28 melanoma, 0.384 µM; in the assay with MDA-MB-435 it was 0.0962 µM; in the assay on OVCAR-5 ovarian it was 2.04 µM. For the same compound, the GI50 is 0.22 µM in the assay on SF-268 CNS, 0.187 µM with NCI/ADR-RES ovarian, 0.171 µM with KM12 colon and 0.197 µM with COLO 205 colon. Moreover, the TGI with HT29 colon was found to be 4.02 µM; with K-562 leukemia, 12.8 µM; in the assay on RXF 393 renal, 4.02 µM; with SK-MEL-28 melanoma, 7.13 µM; in the assay with MDA-MB-435, 1.05 µM; in the assay on OVCAR-5 ovarian, 6.78 µM. For the same compound, the TGI in the assay with SF-268 CNS came out at 5.42 µM; in the assay on NCI/ADR-RES ovarian, 2.94 µM; with KM12 colon it was 4.05 µM; in the assay on COLO 205 colon it was 3.06 µM.

In the case of `CN(C(=O)c1ccncc1)c1ccccc1`, the TGI with HT29 colon, in the assay with K-562 leukemia, with RXF 393 renal, in the assay with SK-MEL-28 melanoma, in the assay on MDA-MB-435 and with OVCAR-5 ovarian was > 100 µM each time. Moreover, the TGI in the assay with SF-268 CNS, with NCI/ADR-RES ovarian, in the assay with KM12 colon and in the assay with COLO 205 colon was > 100 µM each time.

With `CSC1(SC2=NCCN2)SC2(NCCN2)S1`, the TGI is 38.3 µM in the assay on HT29 colon; 81.2 µM in the assay with K-562 leukemia; 20.4 µM in the assay on RXF 393 renal; 40.1 µM with SK-MEL-28 melanoma; 31.3 µM in the assay with MDA-MB-435; 39.6 µM in the assay on OVCAR-5 ovarian. The TGI in the assay with SF-268 CNS is 40.3 µM; in the assay on NCI/ADR-RES ovarian, > 91.6 µM; with KM12 colon, 5.37 µM; in the assay on COLO 205 colon, 40.5 µM.

`OCC1OC(n2cnc3c(=S)nc[nH]c32)C(O)C1O` (stereo not given): the GI50 in the assay with HT29 colon is 4.72 µM; in the assay with K-562 leukemia, 1.04 µM; with RXF 393 renal, > 100 µM; in the assay with SK-MEL-28 melanoma, > 62.5 µM; with MDA-MB-435, 3.89 µM; in the assay on OVCAR-5 ovarian it was 3.79 µM. Also, the GI50 with SF-268 CNS was > 23.9 µM; in the assay on NCI/ADR-RES ovarian it was 3.52 µM; in the assay on KM12 colon it was 7.46 µM; in the assay with COLO 205 colon, 8.34 µM. Further, the TGI with HT29 colon, in the assay on K-562 leukemia, in the assay with RXF 393 renal, in the assay with SK-MEL-28 melanoma, with MDA-MB-435 and in the assay with OVCAR-5 ovarian was > 2500 µM throughout. Moreover, the TGI is > 2500 µM in the assay with SF-268 CNS, > 2500 µM in the assay on NCI/ADR-RES ovarian, > 2500 µM with KM12 colon and > 2450 µM with COLO 205 colon.

As to `S=C(Nc1cc(Cl)c(Cl)cc1Cl)SCc1ccccc1`, the TGI in the assay on HT29 colon was 43.7 µM; in the assay with K-562 leukemia, 45.1 µM; in the assay with RXF 393 renal, > 100 µM; with SK-MEL-28 melanoma it was > 100 µM; in the assay with MDA-MB-435 it was 38.6 µM; in the assay with OVCAR-5 ovarian, 46.5 µM. Also, the TGI in the assay on SF-268 CNS is > 100 µM; in the assay with NCI/ADR-RES ovarian it was 54.6 µM; in the assay on KM12 colon, 36.6 µM; in the assay on COLO 205 colon, > 100 µM.

Turning to `c1ccc(CSc2nnc3c4ccccc4c4ccccc4c3n2)cc1`, the TGI in the assay on HT29 colon was > 100 µM; in the assay on K-562 leukemia, > 100 µM; in the assay on RXF 393 renal it was > 79.5 µM; with SK-MEL-28 melanoma, > 100 µM; with MDA-MB-435, > 100 µM; in the assay with OVCAR-5 ovarian it was > 100 µM. The TGI in the assay with SF-268 CNS is 67.9 µM; with NCI/ADR-RES ovarian it was > 100 µM; with KM12 colon it was > 100 µM; in the assay with COLO 205 colon it was > 100 µM.

Regarding `Clc1nc(Cl)c(-c2ccccc2)c(Cl)n1`, the TGI in the assay on HT29 colon is 49.3 µM; in the assay with K-562 leukemia, > 35 µM; in the assay on RXF 393 renal it was 5.58 µM; with SK-MEL-28 melanoma, 19.3 µM; in the assay on MDA-MB-435, 9.55 µM; in the assay with OVCAR-5 ovarian it was 9.88 µM. The TGI in the assay on SF-268 CNS was > 29.9 µM; in the assay with NCI/ADR-RES ovarian it was 11 µM; in the assay with KM12 colon, 14.6 µM; in the assay with COLO 205 colon it was 3.6 µM.

Consider `Cn1cc(-c2ccc(-c3cn(C)c4ccc(Cl)cc34)s2)c2cc(Cl)ccc21`, for which the GI50 in the assay on HT29 colon is > 100 µM; in the assay with K-562 leukemia it was > 100 µM; in the assay with RXF 393 renal it was 70.3 µM; in the assay on SK-MEL-28 melanoma, > 100 µM; with MDA-MB-435, > 100 µM; in the assay on OVCAR-5 ovarian, > 100 µM. Further, the GI50 with SF-268 CNS, in the assay on NCI/ADR-RES ovarian, with KM12 colon and with COLO 205 colon was > 100 µM throughout. Moreover, the TGI in the assay with HT29 colon, in the assay with K-562 leukemia, in the assay with RXF 393 renal, in the assay with SK-MEL-28 melanoma, in the assay with MDA-MB-435 and with OVCAR-5 ovarian was > 100 µM each time. The TGI in the assay with SF-268 CNS, in the assay with NCI/ADR-RES ovarian, with KM12 colon and in the assay on COLO 205 colon was > 100 µM in each case.

For the compound `O=C(CCCSc1nc(-c2ccccc2)cc(-c2ccc(Cl)cc2)n1)NO`, the GI50 was 2.47 µM in the assay on HT29 colon; 1.51 µM in the assay on K-562 leukemia; 0.445 µM with RXF 393 renal; 3.51 µM in the assay with SK-MEL-28 melanoma; 3.11 µM in the assay on MDA-MB-435; 2.12 µM in the assay with OVCAR-5 ovarian. In addition, the GI50 in the assay with SF-268 CNS is 1.88 µM; in the assay on NCI/ADR-RES ovarian, 0.351 µM; in the assay with KM12 colon it was 2.96 µM; in the assay with COLO 205 colon, 2.9 µM. Besides, the TGI in the assay with HT29 colon came to 13.2 µM; with K-562 leukemia, 26.1 µM; in the assay with RXF 393 renal it was 2.55 µM; with SK-MEL-28 melanoma, 15.3 µM; in the assay with MDA-MB-435, 14.8 µM; in the assay with OVCAR-5 ovarian it was 8.48 µM. Besides, the TGI in the assay on SF-268 CNS worked out at 7.14 µM; with NCI/ADR-RES ovarian, 2.58 µM; in the assay with KM12 colon, 14.2 µM; with COLO 205 colon, 12.1 µM.

For the compound `CCCOC(=O)CCn1c(SC)nc2[nH]cc(-c3ccccc3)c2c1=O`, the GI50 in the assay with HT29 colon was 15.5 µM; in the assay on K-562 leukemia, 3.95 µM; in the assay with RXF 393 renal, 19.1 µM; in the assay on SK-MEL-28 melanoma, 20.3 µM; with MDA-MB-435 it was 17.5 µM; with OVCAR-5 ovarian it was > 100 µM. Further, the GI50 in the assay on SF-268 CNS was 14.5 µM; with NCI/ADR-RES ovarian it was 25.4 µM; with KM12 colon, 18.7 µM; in the assay on COLO 205 colon it was 19.1 µM. Also, the TGI is 61.6 µM in the assay with HT29 colon; 43.1 µM in the assay with K-562 leukemia; 54.8 µM in the assay on RXF 393 renal; 58.8 µM with SK-MEL-28 melanoma; 38.5 µM in the assay on MDA-MB-435; > 100 µM with OVCAR-5 ovarian. The TGI with SF-268 CNS was > 100 µM; with NCI/ADR-RES ovarian, > 100 µM; in the assay with KM12 colon it was 53.8 µM; in the assay with COLO 205 colon, 46.5 µM.
